Our source for the Ki and IC50 values is ChEMBL document CHEMBL1148517, “A new class of selective, non-basic 5-HT2A receptor antagonists” (Bioorg Med Chem Lett, 2006).

The structures appear in SMILES notation. A value given as a limit tells only on which side of the number the result lay.

The target in assay [1] is Voltage-gated inwardly rectifying potassium channel KCNH2 (Homo sapiens, UniProt Q12809). Put plainly: Binding affinity to human IKr.
Assay [2] addresses T1, 5-hydroxytryptamine receptor 2A (Homo sapiens, UniProt P28223). Kind of assay: Binding affinity to human 5HT2A.
Assay [3] addresses T2, 5-hydroxytryptamine receptor 2C (Homo sapiens, UniProt P28335).
T2 sequence (P28335 whole entry): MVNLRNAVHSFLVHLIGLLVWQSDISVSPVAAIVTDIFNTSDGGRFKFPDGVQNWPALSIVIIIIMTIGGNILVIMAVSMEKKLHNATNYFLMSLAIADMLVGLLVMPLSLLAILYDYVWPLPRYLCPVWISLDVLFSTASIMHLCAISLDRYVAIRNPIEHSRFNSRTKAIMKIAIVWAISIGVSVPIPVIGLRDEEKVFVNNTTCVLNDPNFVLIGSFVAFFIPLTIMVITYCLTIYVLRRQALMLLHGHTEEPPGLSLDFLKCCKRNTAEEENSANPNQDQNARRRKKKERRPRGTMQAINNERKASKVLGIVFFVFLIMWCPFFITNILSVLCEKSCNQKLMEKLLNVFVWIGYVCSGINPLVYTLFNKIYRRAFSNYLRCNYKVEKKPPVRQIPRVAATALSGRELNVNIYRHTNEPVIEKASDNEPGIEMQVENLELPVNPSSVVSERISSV
Put plainly: Binding affinity to human 5HT2C.

In another assay the target is D(2) dopamine receptor (Homo sapiens, UniProt P14416). Put plainly: Binding affinity to human D2 receptor.
Assay [4] deals with T1, 5-hydroxytryptamine receptor 2A. Kind of assay: Antagonist activity against human 5HT2A transfected in CHO cells by aurora beta lactamase reporter gene assay. The format is functional, cell-based. (Reporter assays use an easily measured gene product as a stand-in for the process of interest.)

Voltage-gated inwardly rectifying potassium channel KCNH2, sequence (Q12809 whole entry): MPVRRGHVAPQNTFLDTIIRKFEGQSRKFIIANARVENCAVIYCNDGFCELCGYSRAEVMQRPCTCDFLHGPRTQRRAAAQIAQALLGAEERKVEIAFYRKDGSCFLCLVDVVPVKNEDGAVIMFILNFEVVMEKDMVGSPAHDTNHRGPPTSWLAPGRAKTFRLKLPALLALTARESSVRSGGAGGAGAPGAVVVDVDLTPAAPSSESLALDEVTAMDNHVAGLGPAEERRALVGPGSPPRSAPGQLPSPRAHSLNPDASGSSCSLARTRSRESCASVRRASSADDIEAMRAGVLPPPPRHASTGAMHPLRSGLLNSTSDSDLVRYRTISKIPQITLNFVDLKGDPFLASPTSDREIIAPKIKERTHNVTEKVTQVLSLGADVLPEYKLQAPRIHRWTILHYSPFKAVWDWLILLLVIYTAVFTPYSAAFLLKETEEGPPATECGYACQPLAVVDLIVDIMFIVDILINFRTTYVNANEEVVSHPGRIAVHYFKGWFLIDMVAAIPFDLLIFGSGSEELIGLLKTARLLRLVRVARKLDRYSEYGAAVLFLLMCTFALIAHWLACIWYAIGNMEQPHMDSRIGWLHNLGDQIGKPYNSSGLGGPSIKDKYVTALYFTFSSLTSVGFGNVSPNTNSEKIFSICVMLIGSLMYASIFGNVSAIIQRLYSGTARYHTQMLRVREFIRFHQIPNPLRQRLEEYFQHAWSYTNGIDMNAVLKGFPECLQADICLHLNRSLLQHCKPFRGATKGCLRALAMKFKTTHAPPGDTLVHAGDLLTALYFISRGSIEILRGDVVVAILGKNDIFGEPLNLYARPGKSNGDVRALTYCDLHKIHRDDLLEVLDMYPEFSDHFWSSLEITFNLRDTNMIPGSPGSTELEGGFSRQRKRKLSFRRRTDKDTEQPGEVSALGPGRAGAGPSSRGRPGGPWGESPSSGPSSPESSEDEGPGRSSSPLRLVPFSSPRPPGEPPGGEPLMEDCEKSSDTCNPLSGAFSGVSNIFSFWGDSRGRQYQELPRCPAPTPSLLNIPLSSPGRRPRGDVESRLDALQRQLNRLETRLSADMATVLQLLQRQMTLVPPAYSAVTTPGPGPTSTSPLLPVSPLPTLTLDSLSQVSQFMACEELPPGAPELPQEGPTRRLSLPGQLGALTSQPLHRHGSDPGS
T1 sequence (P28223 whole entry): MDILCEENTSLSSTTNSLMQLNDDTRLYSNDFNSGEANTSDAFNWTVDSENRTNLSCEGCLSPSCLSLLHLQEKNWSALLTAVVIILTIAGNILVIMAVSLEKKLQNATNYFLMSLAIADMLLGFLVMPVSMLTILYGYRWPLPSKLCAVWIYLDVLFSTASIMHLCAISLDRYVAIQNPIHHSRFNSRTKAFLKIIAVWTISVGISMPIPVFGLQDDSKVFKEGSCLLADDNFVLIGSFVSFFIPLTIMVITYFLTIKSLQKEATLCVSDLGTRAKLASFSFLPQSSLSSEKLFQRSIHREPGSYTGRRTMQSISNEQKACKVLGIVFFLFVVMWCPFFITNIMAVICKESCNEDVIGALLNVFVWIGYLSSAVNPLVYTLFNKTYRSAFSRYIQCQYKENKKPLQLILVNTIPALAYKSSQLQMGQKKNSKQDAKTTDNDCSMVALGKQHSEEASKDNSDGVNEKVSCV
D(2) dopamine receptor, sequence (P14416 whole entry): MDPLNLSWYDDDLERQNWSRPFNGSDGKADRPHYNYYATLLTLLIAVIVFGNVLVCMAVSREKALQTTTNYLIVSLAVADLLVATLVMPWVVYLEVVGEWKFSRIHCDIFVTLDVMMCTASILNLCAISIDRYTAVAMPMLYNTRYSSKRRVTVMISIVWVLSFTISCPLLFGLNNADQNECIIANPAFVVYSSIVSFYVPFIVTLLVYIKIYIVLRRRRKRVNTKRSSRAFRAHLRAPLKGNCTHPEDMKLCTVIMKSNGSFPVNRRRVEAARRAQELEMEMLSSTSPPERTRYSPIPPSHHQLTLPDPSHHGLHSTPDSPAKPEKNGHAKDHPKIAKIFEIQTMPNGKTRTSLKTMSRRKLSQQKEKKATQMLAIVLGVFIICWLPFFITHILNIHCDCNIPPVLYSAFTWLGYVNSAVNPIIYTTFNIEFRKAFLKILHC

As to `N#Cc1ccccc1S(=O)(=O)N1CCC(CCc2ccc(F)cc2F)CC1`, the inhibition constant (Ki) (in general, a dissociation constant, usually derived from enzyme kinetics or from competition with a known ligand) is greater than 9000 nM in assay [1], 8.1 nM in assay [2], 70 nM in assay [3] and greater than 1000 nM on D(2) dopamine receptor.

With `O=S(=O)(c1cccc2ccccc12)N1CCC(CCc2ccc(F)cc2F)CC1`, the Ki in assay [1] was greater than 9000 nM; in assay [2] it was 1.7 nM; in assay [3] it was 96 nM; on D(2) dopamine receptor, greater than 1000 nM.

For `O=S(=O)(c1ccc(F)cc1)N1CCC(F)(CCc2ccc(F)cc2F)CC1`, the Ki in assay [1] was greater than 9000 nM; in assay [2], 24 nM; in assay [3], 806 nM; on D(2) dopamine receptor, greater than 1000 nM.

Consider `O=C(c1cccc2cccnc12)N1CCC(CCc2ccc(F)cc2F)CC1`, for which the Ki in assay [1] is greater than 9000 nM; in assay [2], 2.9 nM; in assay [3], 28 nM; at D(2) dopamine receptor, greater than 1000 nM.

Regarding `N#Cc1c[nH]c2c(C(=O)N3CCN(CCc4ccc(F)cc4F)CC3)cccc12`, the Ki is 1270 nM in assay [1], 0.87 nM in assay [2], 557 nM in assay [3] and greater than 1000 nM at D(2) dopamine receptor.

For the compound `O=S(=O)(c1ccc(F)cc1)N1CCN(CCc2ccc(F)cc2F)CC1`, the Ki was 4870 nM in assay [1], 4.4 nM in assay [2], 3780 nM in assay [3] and greater than 1000 nM at D(2) dopamine receptor.

Turning to `O=S(=O)(c1ccccc1F)N1CCC(CCc2ccc(F)cc2F)CC1`, the Ki in assay [1] is greater than 9000 nM; in assay [2], 9.9 nM; in assay [3] it was 239 nM; at D(2) dopamine receptor, greater than 1000 nM.

In the case of `O=C(c1ccccc1F)N1CCC(CCc2ccc(F)cc2F)CC1`, the Ki is greater than 9000 nM in assay [1], 110 nM in assay [3] and greater than 1000 nM at D(2) dopamine receptor.

On to `O=S(=O)(c1ccccc1Cl)N1CCC(CCc2ccc(F)cc2F)CC1`, for which the Ki in assay [1] was greater than 9000 nM; in assay [2] it was 6.1 nM; in assay [3] it was 404 nM; on D(2) dopamine receptor, greater than 1000 nM.

Consider `O=S(=O)(c1ccc(F)cc1)N1CC=C(CCc2ccc(F)cc2F)CC1`, for which the Ki is greater than 9000 nM in assay [1], 22 nM in assay [2], 449 nM in assay [3] and greater than 1000 nM at D(2) dopamine receptor.

Consider `O=S(=O)(c1ccc(F)cc1)N1CCC(CCc2ccc(F)cc2F)CC1`, for which the Ki in assay [1] was greater than 9000 nM; in assay [2] it was 52 nM; in assay [3], 2030 nM; at D(2) dopamine receptor, greater than 1000 nM.

With `O=S(=O)(c1cccc2cccnc12)N1CCC(CCc2ccc(F)cc2F)CC1`, the Ki in assay [1] is greater than 9000 nM; in assay [2] it was 2.1 nM; in assay [3] it was 184 nM; on D(2) dopamine receptor it was greater than 1000 nM.

For the compound `O=S(=O)(c1ccc(F)cc1)N1CCC(O)(CCc2ccc(F)cc2F)CC1`, the Ki was greater than 9000 nM in assay [1], 190 nM in assay [2], greater than 4000 nM in assay [3] and greater than 1000 nM at D(2) dopamine receptor.

On to `O=S(=O)(c1cccc(F)c1)N1CCC(CCc2ccc(F)cc2F)CC1`, for which it took 319 nM to reach half-maximal inhibition in assay [4] (IC50). The inhibition constant (Ki) in assay [1] is greater than 9000 nM; in assay [2] it was 14 nM; in assay [3], 997 nM; at D(2) dopamine receptor, greater than 1000 nM.
